Consider six substances from patent US11512335B2, “Vertebrate cells and methods for recombinantly expressing a polypeptide of interest” (Novartis AG, priority 2014, dated 2022).

The subject of data set [1] is Matriptase (MT-SP1, St14) mRNA. As to the kind of experiment: siRNA silencing in CHO-K1 derived cells, mRNA expression by real-time RT-PCR. It is filed as cell-based, Chinese hamster. Conditions: for residual protease gene-expression: siRNA negative control cells = 100%, three days after transfection. On the procedure: (§1) First, the proteolytic cleavage site(s) of different recombinant proteins that are prone to clipping were analyzed using different techniques including CE-SDS analysis, mass spectrometry and in silico analysis (data not shown). […] The siRNAs were designed against the following target mRNAs expressed in CHO cells: 1. Matriptase (MT-SP1; also referred to herein as St14), 2. C1r (complement component activated C1r; also referred to as Ctra), 3. C1s (complement component C1sB; also referred to as Gm5077), 4. Plat (t-plasminogen activator) and 5. Prss35 (protease, serine, 35). These target genes encode trypsin-like proteases that are either secreted or transmembrane proteins and thus could be involved in clipping of recombinantly expressed proteins that are secreted into the cell culture medium. It was confirmed in advance that these proteins are expressed by the CHO cells. Table 2 provides an overview over the respective target genes:
(§2) RNAi transfection of CHO-K1 derived cells was performed using Lipofectamine® RNAiMAX Reagent (Life Technology, cat. 13778), following the ‘Reverse Transfection Protocol’ of the manual MAN0001182, scaled up for 6-well plates. For each mRNA target, the two most efficient concentrations of RNAi duplex molecules were used among 100, 125 and 150 pmol: 125 and 150 pmol for MT-SP1 (St14), 125 and 150 pmol for C1r (C1ra), 100 and 125 pmol for Cis (Gm5077), 125 and 150 pmol for Plat and 100 and 125 pmol for Prss35. RNAi duplex molecules of the two selected concentrations were diluted in 1 ml Opti-MEM® (Gibco, cat. 31985-062). As RNAi negative control (siRNA negative control), the Silencer@ Negative Control No. 1 siRNA (AM4611) was used (at 125 pmol). 5 μl Lipofectamine® RNAiMAX Reagent was added in each well. 2 ml of a cell suspension with a concentration of 0.5×10^6 cells/ml were added and plates were incubated at 37° C. and 10% CO2. Three days after transfection, cell density was measured, total RNA of 3×10^6 viable cells was extracted using RNeasy Plus Mini Kit (Qiagen, cat. 74134) and conditioned medium was collected from each well. To control the silencing effect on the target genes, mRNA expression was determined by real-time RT-PCR.

Data set [2] relates to C1r (C1ra) mRNA. Described as above. It is filed as cell-based, Chinese hamster. The note with it: for residual protease gene-expression: siRNA negative control cells = 100%. As for the experimental part:
as §1, §2

In data set [3] the test system is C1s (Gm5077) mRNA. Described as above. In kind it is cell-based, Chinese hamster. Conditions: for residual protease gene-expression: siRNA negative control cells = 100%. On the procedure:
as §1, §2

In data set [4] the test system is Prss35 mRNA. The data set is described as above. In kind it is cell-based, Chinese hamster. The note with it: for residual protease gene-expression: siRNA negative control cells = 100%. On the procedure: as §1, §2
Data set [5] has as its target T1, matriptase (Homo sapiens, UniProt Q9Y5Y6).
T1 sequence (Q9Y5Y6 1-855): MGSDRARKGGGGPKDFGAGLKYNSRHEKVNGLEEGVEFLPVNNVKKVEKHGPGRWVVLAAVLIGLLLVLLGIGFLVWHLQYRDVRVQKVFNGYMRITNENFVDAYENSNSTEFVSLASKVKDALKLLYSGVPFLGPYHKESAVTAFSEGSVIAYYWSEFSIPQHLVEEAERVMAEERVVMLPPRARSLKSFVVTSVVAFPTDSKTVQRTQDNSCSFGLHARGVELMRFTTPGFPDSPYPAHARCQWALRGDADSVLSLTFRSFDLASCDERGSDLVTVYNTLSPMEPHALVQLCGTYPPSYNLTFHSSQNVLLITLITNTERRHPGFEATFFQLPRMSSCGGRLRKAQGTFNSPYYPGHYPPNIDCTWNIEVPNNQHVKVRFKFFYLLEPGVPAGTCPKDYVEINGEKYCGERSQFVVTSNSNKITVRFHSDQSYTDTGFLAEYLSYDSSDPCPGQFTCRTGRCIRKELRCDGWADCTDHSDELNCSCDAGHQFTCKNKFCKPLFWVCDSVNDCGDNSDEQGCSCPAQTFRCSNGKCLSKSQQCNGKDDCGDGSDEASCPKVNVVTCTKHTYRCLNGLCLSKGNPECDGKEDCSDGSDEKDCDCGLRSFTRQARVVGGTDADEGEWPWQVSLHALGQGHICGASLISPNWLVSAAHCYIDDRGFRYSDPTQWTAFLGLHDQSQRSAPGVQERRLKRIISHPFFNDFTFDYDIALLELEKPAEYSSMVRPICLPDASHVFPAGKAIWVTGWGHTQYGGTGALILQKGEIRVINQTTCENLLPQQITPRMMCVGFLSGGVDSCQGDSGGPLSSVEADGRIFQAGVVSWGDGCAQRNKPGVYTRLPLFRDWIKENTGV
Conditions: Forbs et al. 2005; Desilets et al. 2006; cited from earlier work.

For data set [6], the system named is Plat mRNA. As to the kind of experiment: siRNA silencing in CHO-K1 derived cells, mRNA expression by real-time RT-PCR. In kind it is cell-based, Chinese hamster. The note with it: for residual protease gene-expression: siRNA negative control cells = 100%. On the procedure:
as §1, §2

Values joined by “and” are separate entries in the source; they are usually repeats but may differ in a detail not shown here. Equal values may be shown once.

As for “MT-SP1: siRNA against matriptase mRNA, sense SEQ ID NO: 6, antisense SEQ ID NO: 7 (sense GCAAGAUCACUGUUCGCUUTT; antisense AAGCGAACAGUGAUCUUGCTG; chemistry not given here)”, the residual protease gene-expression in data set [1] (125 pmol siRNA) is recorded as 18.6%; in data set [1] (150 pmol siRNA) it was 18.2%. The “MT-SP1 suppressed in comparison to the negative control” value in data set [1] (two set-ups (125 and 150 pmol siRNA)) was 81.4% and 81.8%.

As to “C1r (C1ra): siRNA against C1ra mRNA, sense SEQ ID NO: 8, antisense SEQ ID NO: 9 (sense GAUGUCUUUUCUCAAAAUATT; antisense UAUUUUGAGAAAAGACAUCAT; chemistry not given here)”, the residual protease gene-expression in data set [2] (125 pmol siRNA) stood at 6.3%; in data set [2] (150 pmol siRNA), 6.7%. Also, in data set [2] (two siRNA concentrations), the mRNA reduction is 93.7% and 93.3%.

“C1s (Gm5077): siRNA against Gm5077 (C1s) mRNA, sense SEQ ID NO: 10, antisense SEQ ID NO: 11 (sense CGCUGAACGUGUGAUUAUUTT; antisense AAUAAUCACACGUUCAGCGGT; chemistry not given here)”: the figures for the residual protease gene-expression in data set [3] (100 pmol siRNA) and in data set [3] (125 pmol siRNA) were 11.9% and 14.4%, respectively. The mRNA reduction in data set [3] (two siRNA concentrations, listed as Cis (Gm5077)) was 88.1% and 85.6%.

As for “Prss35: siRNA against Prss35 mRNA, sense SEQ ID NO: 14, antisense SEQ ID NO: 15 (sense GGCCUUAGACUACGACUAUTT; antisense AUAGUCGUAGUCUAAGGCCGG; chemistry not given here)”, the residual protease gene-expression in data set [4] (100 pmol siRNA) was found to be 18.4%; in data set [4] (125 pmol siRNA), 14.8%. Further, in data set [4] (two siRNA concentrations), the mRNA reduction was 81.6% and 85.2%.

Regarding eglin c, in data set [5], the Ki is 18 nM.

As for “Plat: siRNA against Plat mRNA, sense SEQ ID NO: 12, antisense SEQ ID NO: 13 (sense GAAACAAGAUGAAGACAGATT; antisense UCUGUCUUCAUCUUGUUUCCC; chemistry not given here)”, the values for the residual protease gene-expression in data set [6] (125 pmol siRNA) and in data set [6] (150 pmol siRNA) were 8.3% and 5.1%, respectively. The mRNA reduction in data set [6] (two siRNA concentrations) is 91.7% and 94.9%.

The term Ki denotes a dissociation constant, usually derived from enzyme kinetics or from competition with a known ligand.
